Assay results reported in publication PMC13002968 (Oncogenesis, 2026).

Biological target: programmed cell death protein 1 (PD-1) (Homo sapiens, UniProt Q15116)
Experiment: SPR
Assay type: binding

Sequence of programmed cell death protein 1 (PD-1) (Q15116 25-288): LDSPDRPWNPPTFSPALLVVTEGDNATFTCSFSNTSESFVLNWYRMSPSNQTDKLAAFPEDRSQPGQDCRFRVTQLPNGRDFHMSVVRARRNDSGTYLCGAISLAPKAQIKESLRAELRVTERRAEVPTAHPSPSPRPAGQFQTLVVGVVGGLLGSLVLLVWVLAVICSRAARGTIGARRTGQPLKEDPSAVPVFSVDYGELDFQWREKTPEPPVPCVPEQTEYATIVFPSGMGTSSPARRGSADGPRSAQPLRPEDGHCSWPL

Q: How did the Kd turn out when `C/C(O)=C(\C#N)C(=O)Nc1ccc(C(F)(F)F)cc1` [TER, teriflunomide] was run?
A: 1.47 nM
